US20070167495A1, “Pleuromutilin derivatives, process for their preparation and uses thereof” (GLAXO[…] UNLIMITED, priority 2003, published 2007)

Tests used:
[1] = tested on: Streptococcus pneumoniae 1629; experiment: Antibacterial activity, MIC against Streptococcus pneumoniae 1629; format: cell-based
[2] = literature background (Egger and Reinshagen, J. Antibiotics 1976); cited from earlier work
[3] = tested on: Staphylococccus aureus Oxford; experiment: Antibacterial activity, MIC against Staphylococccus aureus Oxford; format: cell-based, Staphylococcus aureus

Compound	MIC [1]	antibacterial activity [2]	MIC [3]
C=C[C@]1(C)C[C@@H](OC(=O)CSc2ccccc2C(=O)O)[C@]2(C)[C@H](C)CC[C@]3(CCC(=O)[C@H]32)[C@@H](C)[C@@H]1O [(2-carboxylato-phenylsulfanyl)-acetic acid mutilin 14-ester]	8 micrograms per millillitre	inferior in activity even to the parent substance pleuromutilin	0.5 micrograms per millillitre
C=C[C@]1(C)C[C@@H](O)[C@]2(C)[C@H](C)CC[C@]3(CCC(=O)[C@H]32)[C@@H](C)[C@@H]1O [Mutilin]	–	inactive	–
C=C[C@]1(C)C[C@@H](OC(=O)CO)[C@]2(C)[C@H](C)CC[C@]3(CCC(=O)[C@H]32)[C@@H](C)[C@@H]1O [Pleuromutilin]	–	modest antibacterial activity	–
(4-Carboxylato-phenylsulfanyl)-acetic acid mutilin 14-ester [Example 1]	0.5 micrograms per millillitre	–	0.125 micrograms per millillitre
